Source: patent publication US8192962B2, “Processes for detecting toxic substances” (Daikin Industries, Ltd., priority 2001, dated 2012)

Test system: DNA repair protein genes
Experiment: DNA chip mRNA expression in yeast, DNA repair protein genes (Table 3)
Format: cell-based, Saccharomyces cerevisiae S288C
Conditions: incubated two hours, concentrations as in the 1st table
Description: Yeast (Saccharomyces cerevisiae S288C (α SUC2mal mel gap2 CUP1)) were incubated at 25° C. on YPD medium (yeast extract 1%, polypepton 2%, glucose 2%). One of toxic chemical substances was added to the cells at logarithmic growth phase, and the cells were further incubated for two hours. Cells were cultured without any chemical substance in the same condition, and were used as control. Concentrations of the chemical substances were defined to inhibit the growth of the yeast but not lead to death.
After completion of the incubation, the culture was centrifuged to collect the cells. To the cells, sodium acetate buffer (50 mM sodium acetate, 10 mM EDTA, 1% SDS) was added, and the mixture was shaken at 65° C. for five minutes, followed by returning to room temperature, and obtaining the supernatant, of which the procedures were repeated two times. To the supernatant, ½ amount of a solution of phenol/chloroform was added, and the mixture was centrifuged to give a supernatant, which was added with an equal amount of chloroform, and the mixture was centrifuged to give a supernatant. To the supernatant, an equal amount of isopropanol containing 0.3 M sodium acetate was added, and the mixture was allowed to stand at room temperature for 30 minutes, after which the mixture was centrifuged to give a sediment of the whole RNAs. Seventy % ethanol was added to the sediment, and the mixture was again centrifuged to give a sediment, which was then dried and dissolved in water. mRNA was isolated from the whole RNAs as followings. In view of the fact that a poly A chain is attached to the 3′ terminus of mRNA, a polynucleotide having a poly T structure which was immobilized on the surface of latex beads was used to trap the mRNA, and then the mRNA was washed and eluted with spine column (Oligotex-dT30<Super>mRNA Purification Kit, Takara). Reverse transcription of the mRNA was conducted with a reverse transcriptase (Super Script II Reverse Transcriptase; catalogue No. 18064-014, GibcoBRL) using fluorescence-labeled nucleotides to give cDNAs that were introduced with Cy3-dUTP or Cy5-dUTP during the reverse transcription.
The labeled cDNAs were dissolved in TE buffer (10mM Tris-HCl/1 mM EDTA, pH8.0), and the solution was dropped on the DNA chip containing the whole genes of yeast (DNA Chip Research Inc. Japan) so that the cDNAs were hybridized on the DNA chip at 65° C. for over 12 hours. The fluoresces intensity of the DNA chip was read with a scanner, and the ratio relative to the fluorescence intensity resulting from the absence of chemical substance was estimated as the following, which is shown in Tables 1 to 9: […]

SMILES: [Cl][Cd][Cl] [(2), CdCl2]
- The level of expressed mRNA in the presence of chemical substance/The level of expressed mRNA in the absence of chemical substance (yeast gene YAL015C): 1.1
- The level of expressed mRNA in the presence of chemical substance/The level of expressed mRNA in the absence of chemical substance (yeast gene YAR007C): 1.9
- The level of expressed mRNA in the presence of chemical substance/The level of expressed mRNA in the absence of chemical substance (yeast gene YBL019W): 9.1
- The level of expressed mRNA in the presence of chemical substance/The level of expressed mRNA in the absence of chemical substance (yeast gene YBR073W): 1.0
- The level of expressed mRNA in the presence of chemical substance/The level of expressed mRNA in the absence of chemical substance (yeast gene YBR272C): 1.8
- The level of expressed mRNA in the presence of chemical substance/The level of expressed mRNA in the absence of chemical substance (yeast gene YCR014C): 1.0
- The level of expressed mRNA in the presence of chemical substance/The level of expressed mRNA in the absence of chemical substance (yeast gene YDL017W): 2.3
- The level of expressed mRNA in the presence of chemical substance/The level of expressed mRNA in the absence of chemical substance (yeast gene YDL059C): 5.1
- The level of expressed mRNA in the presence of chemical substance/The level of expressed mRNA in the absence of chemical substance (yeast gene YDL200C): 2.0
- The level of expressed mRNA in the presence of chemical substance/The level of expressed mRNA in the absence of chemical substance (yeast gene YDR054C): 1.0
- The level of expressed mRNA in the presence of chemical substance/The level of expressed mRNA in the absence of chemical substance (yeast gene YDR369C): 1.1
- The level of expressed mRNA in the presence of chemical substance/The level of expressed mRNA in the absence of chemical substance (yeast gene YEL019C): 1.6
- The level of expressed mRNA in the presence of chemical substance/The level of expressed mRNA in the absence of chemical substance (yeast gene YEL037C): 2.0
- The level of expressed mRNA in the presence of chemical substance/The level of expressed mRNA in the absence of chemical substance (yeast gene YER162C): 1.2
- The level of expressed mRNA in the presence of chemical substance/The level of expressed mRNA in the absence of chemical substance (yeast gene YFL014W): 5.1
- The level of expressed mRNA in the presence of chemical substance/The level of expressed mRNA in the absence of chemical substance (yeast gene YGL058W): 1.1
- The level of expressed mRNA in the presence of chemical substance/The level of expressed mRNA in the absence of chemical substance (yeast gene YGL091C): 1.8
- The level of expressed mRNA in the presence of chemical substance/The level of expressed mRNA in the absence of chemical substance (yeast gene YGL127C): 1.9
- The level of expressed mRNA in the presence of chemical substance/The level of expressed mRNA in the absence of chemical substance (yeast gene YGL163C): 0.8
- The level of expressed mRNA in the presence of chemical substance/The level of expressed mRNA in the absence of chemical substance (yeast gene YGL249W): 0.8
- The level of expressed mRNA in the presence of chemical substance/The level of expressed mRNA in the absence of chemical substance (yeast gene YGR180C): 1.1
- The level of expressed mRNA in the presence of chemical substance/The level of expressed mRNA in the absence of chemical substance (yeast gene YGR231C): 1.2
- The level of expressed mRNA in the presence of chemical substance/The level of expressed mRNA in the absence of chemical substance (yeast gene YGR258C): 0.9
- The level of expressed mRNA in the presence of chemical substance/The level of expressed mRNA in the absence of chemical substance (yeast gene YHR164C): 1.3
- The level of expressed mRNA in the presence of chemical substance/The level of expressed mRNA in the absence of chemical substance (yeast gene YIL036W): 1.3
- The level of expressed mRNA in the presence of chemical substance/The level of expressed mRNA in the absence of chemical substance (yeast gene YIL072W): 3.1
- The level of expressed mRNA in the presence of chemical substance/The level of expressed mRNA in the absence of chemical substance (yeast gene YIL143C): 0.8
- The level of expressed mRNA in the presence of chemical substance/The level of expressed mRNA in the absence of chemical substance (yeast gene YIL153W): 1.4
- The level of expressed mRNA in the presence of chemical substance/The level of expressed mRNA in the absence of chemical substance (yeast gene YIR002C): 1.1
- The level of expressed mRNA in the presence of chemical substance/The level of expressed mRNA in the absence of chemical substance (yeast gene YJL026W): 2.4
- The level of expressed mRNA in the presence of chemical substance/The level of expressed mRNA in the absence of chemical substance (yeast gene YJR046W): 1.2
- The level of expressed mRNA in the presence of chemical substance/The level of expressed mRNA in the absence of chemical substance (yeast gene YJR052W): 1.0
- The level of expressed mRNA in the presence of chemical substance/The level of expressed mRNA in the absence of chemical substance (yeast gene YKL145W): 1.4
- The level of expressed mRNA in the presence of chemical substance/The level of expressed mRNA in the absence of chemical substance (yeast gene YLR103C): 1.5
- The level of expressed mRNA in the presence of chemical substance/The level of expressed mRNA in the absence of chemical substance (yeast gene YLR233C): 0.9
- The level of expressed mRNA in the presence of chemical substance/The level of expressed mRNA in the absence of chemical substance (yeast gene YLR288C): 0.8
- The level of expressed mRNA in the presence of chemical substance/The level of expressed mRNA in the absence of chemical substance (yeast gene YML032C): 0.9
- The level of expressed mRNA in the presence of chemical substance/The level of expressed mRNA in the absence of chemical substance (yeast gene YML058W): 1.2
- The level of expressed mRNA in the presence of chemical substance/The level of expressed mRNA in the absence of chemical substance (yeast gene YMR035W): 1.7
- The level of expressed mRNA in the presence of chemical substance/The level of expressed mRNA in the absence of chemical substance (yeast gene YMR072W): 1.0
- The level of expressed mRNA in the presence of chemical substance/The level of expressed mRNA in the absence of chemical substance (yeast gene YMR096W): 1.7
- The level of expressed mRNA in the presence of chemical substance/The level of expressed mRNA in the absence of chemical substance (yeast gene YMR284W): 1.0
- The level of expressed mRNA in the presence of chemical substance/The level of expressed mRNA in the absence of chemical substance (yeast gene YNL213C): 11.6
- The level of expressed mRNA in the presence of chemical substance/The level of expressed mRNA in the absence of chemical substance (yeast gene YNL250W): 2.2
- The level of expressed mRNA in the presence of chemical substance/The level of expressed mRNA in the absence of chemical substance (yeast gene YNL261W): 1.3
- The level of expressed mRNA in the presence of chemical substance/The level of expressed mRNA in the absence of chemical substance (yeast gene YNL312W): 1.0
- The level of expressed mRNA in the presence of chemical substance/The level of expressed mRNA in the absence of chemical substance (yeast gene YOL043C): 0.9
- The level of expressed mRNA in the presence of chemical substance/The level of expressed mRNA in the absence of chemical substance (yeast gene YOR005C): 1.8
- The level of expressed mRNA in the presence of chemical substance/The level of expressed mRNA in the absence of chemical substance (yeast gene YOR386W): 0.8
- The level of expressed mRNA in the presence of chemical substance/The level of expressed mRNA in the absence of chemical substance (yeast gene YPL022W): 0.8
- The level of expressed mRNA in the presence of chemical substance/The level of expressed mRNA in the absence of chemical substance (yeast gene YPL164C): 0.7
- The level of expressed mRNA in the presence of chemical substance/The level of expressed mRNA in the absence of chemical substance (yeast gene YPL194W): 1.4
- The level of expressed mRNA in the presence of chemical substance/The level of expressed mRNA in the absence of chemical substance (yeast gene YPR025C): 0.8
